Legend:
[1] = molecular target: T1, Amyloid-beta precursor protein (Homo sapiens, UniProt P05067); test: Inhibition of amyloid beta (1 to 42) (unknown origin) self aggregation at 40 uM and measured after 24 hrs by Thioflavin T based fluorometric assay
Acetylcholinesterase [2] = molecular target: T2, Acetylcholinesterase (Homo sapiens, UniProt P22303); test: Inhibition of human AChE using acetylthiocholine iodide as substrate preincubated for 6 mins followed by substrate addition and measured for 12 mins by DTNB reagent based Ellman's method
[3] = molecular target: T1, Amyloid-beta precursor protein; test: Inhibition of amyloid beta (1 to 42) (unknown origin) self aggregation incubated for 24 hrs by Thioflavin T based fluorometric assay
Beta-secretase 1 [4] = molecular target: T3, Beta-secretase 1 (Homo sapiens, UniProt P56817); test: Inhibition of human BACE-1 using Rh-EVNLDAEFK-quencher as peptide substrate incubated for 1 hr in dark by FRET assay
Cholinesterase [5] = molecular target: T4, Cholinesterase (Homo sapiens, UniProt P06276); test: Inhibition of human BuChE using butyrylthiocholine iodide as substrate at 10 uM preincubated for 6 mins followed by substrate addition and measured for 12 mins by DTNB reagent based Ellman's method; details: time 18.0 min
Acetylcholinesterase [6] = molecular target: T5, Acetylcholinesterase (Electrophorus electricus, UniProt O42275); test: Inhibition of Electrophorus electricus AChE using acetylthiocholine iodide as substrate preincubated for 5 mins followed by substrate addition and measured for 5 mins by spectrophotometric based Ellman's method
Beta-secretase 1 [7] = molecular target: T3, Beta-secretase 1; test: Inhibition of BACE-1 (unknown origin)
[8] = molecular target: T6, Gamma-secretase (Homo sapiens) (UniProt Q96BI3+Q9NZ42+Q8WW43+P49768+Q92542+P49810); test: Inhibition of gamma secretase in human H4 cells expressing human wild type APP assessed as reduction in amyloid beta 1-42 level at 100 uM for 12 hrs by ELISA; format: cell-based
[9] = molecular target: T6, Gamma-secretase (Homo sapiens); test: Inhibition of gamma secretase in human H4 cells expressing human wild type APP assessed as reduction in amyloid beta 1-40 level at 100 uM for 12 hrs by ELISA; format: cell-based
Cholinesterase [10] = molecular target: T7, Cholinesterase (Equus caballus, UniProt P81908); test: Inhibition of horse serum BuChE using butyrylthiocholine chloride as substrate by spectrophotometric based Ellman's method
Acetylcholinesterase [11] = molecular target: T5, Acetylcholinesterase; test: Inhibition of electric eel AChE using acetylthiocholine iodide as substrate by spectrophotometric based Ellman's method
[12] = molecular target: T1, Amyloid-beta precursor protein; test: Inhibition of self-induced amyloid beta (1 to 42) (unknown origin) aggregation at 25 uM
[13] = molecular target: T1, Amyloid-beta precursor protein; test: Inhibition of self-induced amyloid beta (1 to 42) (unknown origin) disaggregation at 25 uM
Cholinesterase [14] = molecular target: T4, Cholinesterase; test: Inhibition of BuChE (unknown origin)
[15] = Selectivity index, ratio of IC50 for inhibition of equine serum BuChE to IC50 for inhibition of electric eel AChE
Acetylcholinesterase [16] = molecular target: T2, Acetylcholinesterase; test: Inhibition of recombinant human AChE using acetylthiocholine as substrate by Ellman's method
Cholinesterase [17] = molecular target: T4, Cholinesterase; test: Inhibition of BuChE (unknown origin) by spectrophotometric based Ellman's method
Acetylcholinesterase [18] = molecular target: T2, Acetylcholinesterase; test: Inhibition of AChE (unknown origin) by spectrophotometric based Ellman's method
[19] = molecular target: T1, Amyloid-beta precursor protein; test: Inhibition of Cu2+ induced amyloid beta (1 to 42) (unknown origin) aggregation at 25 uM and measured after 24 hrs by Thioflavin T based fluorometric assay
Cholinesterase [20] = molecular target: T7, Cholinesterase; test: Inhibition of equine serum BuChE using butyrylthiocholine iodide as substrate preincubated for 5 mins followed by substrate addition and measured for 2 mins by spectrophotometric based Ellman's method
Acetylcholinesterase [21] = molecular target: T5, Acetylcholinesterase; test: Inhibition of Electrophorus electricus AChE using acetylthiocholine iodide as substrate preincubated for 5 mins followed by substrate addition and measured for 2 mins by spectrophotometric based Ellman's method
[22] = Antioxidant activity assessed as NO radical scavenging activity incubated for 150 mins in presence of sodium nitroprusside by griess reagent based assay; format: functional
Acetylcholinesterase [23] = molecular target: T2, Acetylcholinesterase; test: Inhibition of AChE (unknown origin) using acetylthiocholine iodide as substrate preincubated for 45 mins followed by substrate addition by DTNB reagent based Ellman's method
[24] = Antioxidant activity assessed as DPPH radical scavenging activity incubated for 30 mins by DPPH assay; format: functional
Acetylcholinesterase [25] = molecular target: T5, Acetylcholinesterase; test: Inhibition of Electrophorus electricus AchE using acetylthiocholine iodide as substrate preincubated for 5 mins followed by substrate addition and measured after 5 mins by Ellman's method
Cholinesterase [26] = molecular target: T7, Cholinesterase; test: Inhibition of equine serum BuChE using butyrylthiocholine iodide as substrate preincubated for 5 mins followed by substrate addition and measured after 5 mins by Ellman's method
[27] = molecular target: Amine oxidase [flavin-containing] B (Homo sapiens, UniProt P27338); test: Inhibition of recombinant human MAO-B using p-tyramine as substrate preincubated for 15 mins followed by substrate addition and measured after 30 mins by Amplex Red reagent based fluorometric analysis
[28] = molecular target: Amine oxidase [flavin-containing] A (Homo sapiens, UniProt P21397); test: Inhibition of recombinant human MAO-A using p-tyramine as substrate preincubated for 15 mins followed by substrate addition and measured after 30 mins by Amplex Red reagent based fluorometric analysis
Amine oxidase [flavin-containing] A, sequence (P21397 whole entry): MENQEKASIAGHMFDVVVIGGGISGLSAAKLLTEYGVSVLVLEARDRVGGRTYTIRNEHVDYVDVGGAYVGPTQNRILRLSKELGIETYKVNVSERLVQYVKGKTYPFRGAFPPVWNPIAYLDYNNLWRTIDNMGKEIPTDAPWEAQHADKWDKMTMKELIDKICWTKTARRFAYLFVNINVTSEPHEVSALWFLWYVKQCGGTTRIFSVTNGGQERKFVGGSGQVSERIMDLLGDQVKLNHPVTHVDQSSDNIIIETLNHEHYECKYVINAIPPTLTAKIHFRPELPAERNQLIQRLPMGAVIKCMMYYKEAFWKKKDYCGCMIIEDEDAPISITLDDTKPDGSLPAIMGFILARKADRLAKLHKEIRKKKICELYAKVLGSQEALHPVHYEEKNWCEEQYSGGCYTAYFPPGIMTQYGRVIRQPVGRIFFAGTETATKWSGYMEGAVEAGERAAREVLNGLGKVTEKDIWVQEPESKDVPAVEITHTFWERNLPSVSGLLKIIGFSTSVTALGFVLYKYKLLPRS

T2 sequence (P22303 whole entry): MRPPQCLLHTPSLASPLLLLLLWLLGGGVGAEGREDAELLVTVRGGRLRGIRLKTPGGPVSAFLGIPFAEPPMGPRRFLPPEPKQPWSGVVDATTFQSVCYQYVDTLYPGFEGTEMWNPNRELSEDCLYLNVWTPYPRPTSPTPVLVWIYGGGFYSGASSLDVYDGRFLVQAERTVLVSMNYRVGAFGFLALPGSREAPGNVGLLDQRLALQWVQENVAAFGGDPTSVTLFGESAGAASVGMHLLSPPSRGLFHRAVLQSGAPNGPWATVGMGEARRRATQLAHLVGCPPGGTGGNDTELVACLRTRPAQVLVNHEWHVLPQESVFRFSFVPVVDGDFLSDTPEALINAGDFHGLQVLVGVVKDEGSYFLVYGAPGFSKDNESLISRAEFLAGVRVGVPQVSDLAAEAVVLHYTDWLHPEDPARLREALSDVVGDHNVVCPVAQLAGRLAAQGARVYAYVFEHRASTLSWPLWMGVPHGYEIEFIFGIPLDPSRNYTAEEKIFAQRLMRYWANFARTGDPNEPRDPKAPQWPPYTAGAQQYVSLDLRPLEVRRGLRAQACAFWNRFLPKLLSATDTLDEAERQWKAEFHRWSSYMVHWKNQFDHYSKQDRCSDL
T5 sequence (O42275 whole entry): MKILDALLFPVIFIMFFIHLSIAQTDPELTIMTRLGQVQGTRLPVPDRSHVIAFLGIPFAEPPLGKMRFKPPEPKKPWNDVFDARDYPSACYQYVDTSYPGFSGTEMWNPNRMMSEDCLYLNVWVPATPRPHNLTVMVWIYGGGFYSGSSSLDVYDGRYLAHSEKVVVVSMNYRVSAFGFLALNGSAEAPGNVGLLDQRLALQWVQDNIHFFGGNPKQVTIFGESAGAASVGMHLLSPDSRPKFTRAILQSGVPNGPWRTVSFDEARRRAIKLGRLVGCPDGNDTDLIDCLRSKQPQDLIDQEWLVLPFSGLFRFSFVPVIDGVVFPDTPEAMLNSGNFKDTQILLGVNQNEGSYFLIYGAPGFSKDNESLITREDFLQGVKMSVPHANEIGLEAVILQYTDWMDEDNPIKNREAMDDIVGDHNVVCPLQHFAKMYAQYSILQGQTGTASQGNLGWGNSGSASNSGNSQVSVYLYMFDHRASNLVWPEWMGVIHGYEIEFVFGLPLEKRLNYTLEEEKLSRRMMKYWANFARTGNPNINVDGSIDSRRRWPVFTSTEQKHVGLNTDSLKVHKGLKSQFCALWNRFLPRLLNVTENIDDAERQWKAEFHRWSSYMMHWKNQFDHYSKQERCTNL
T4 sequence (P06276 whole entry): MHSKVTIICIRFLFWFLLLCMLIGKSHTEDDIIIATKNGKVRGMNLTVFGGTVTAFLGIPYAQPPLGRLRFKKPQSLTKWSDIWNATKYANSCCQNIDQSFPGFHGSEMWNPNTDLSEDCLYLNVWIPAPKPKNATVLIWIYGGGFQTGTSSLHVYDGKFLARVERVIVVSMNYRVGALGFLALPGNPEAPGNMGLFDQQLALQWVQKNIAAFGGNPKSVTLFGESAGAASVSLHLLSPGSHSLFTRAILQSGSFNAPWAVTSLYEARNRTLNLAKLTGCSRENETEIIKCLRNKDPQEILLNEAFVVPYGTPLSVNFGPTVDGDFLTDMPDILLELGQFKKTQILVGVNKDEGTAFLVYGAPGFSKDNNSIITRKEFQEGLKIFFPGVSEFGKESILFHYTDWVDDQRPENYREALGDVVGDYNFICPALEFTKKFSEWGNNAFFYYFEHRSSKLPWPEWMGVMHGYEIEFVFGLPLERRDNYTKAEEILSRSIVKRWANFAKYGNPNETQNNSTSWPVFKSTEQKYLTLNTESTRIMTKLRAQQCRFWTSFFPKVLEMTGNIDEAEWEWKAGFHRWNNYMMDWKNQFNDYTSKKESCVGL
T1 sequence (P05067 whole entry): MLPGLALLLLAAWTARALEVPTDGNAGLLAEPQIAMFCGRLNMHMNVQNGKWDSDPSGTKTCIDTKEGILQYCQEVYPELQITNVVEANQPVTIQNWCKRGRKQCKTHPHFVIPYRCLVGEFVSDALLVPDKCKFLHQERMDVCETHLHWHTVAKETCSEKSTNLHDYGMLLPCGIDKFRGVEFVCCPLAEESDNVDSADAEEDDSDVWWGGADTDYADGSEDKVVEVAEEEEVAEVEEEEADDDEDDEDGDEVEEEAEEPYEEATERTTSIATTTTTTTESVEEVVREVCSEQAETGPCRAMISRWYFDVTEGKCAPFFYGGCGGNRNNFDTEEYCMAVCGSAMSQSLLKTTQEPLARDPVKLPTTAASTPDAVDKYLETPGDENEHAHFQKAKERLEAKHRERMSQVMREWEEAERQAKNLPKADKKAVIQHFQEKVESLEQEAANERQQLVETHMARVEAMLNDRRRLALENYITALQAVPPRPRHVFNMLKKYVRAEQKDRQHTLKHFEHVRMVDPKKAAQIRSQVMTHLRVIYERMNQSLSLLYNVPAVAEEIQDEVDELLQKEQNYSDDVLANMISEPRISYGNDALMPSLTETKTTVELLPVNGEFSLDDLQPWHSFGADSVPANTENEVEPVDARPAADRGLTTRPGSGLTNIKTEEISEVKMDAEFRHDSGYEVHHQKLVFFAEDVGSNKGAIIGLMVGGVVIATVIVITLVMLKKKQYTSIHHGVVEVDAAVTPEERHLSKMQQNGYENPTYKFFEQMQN
T7 sequence (P81908 whole entry): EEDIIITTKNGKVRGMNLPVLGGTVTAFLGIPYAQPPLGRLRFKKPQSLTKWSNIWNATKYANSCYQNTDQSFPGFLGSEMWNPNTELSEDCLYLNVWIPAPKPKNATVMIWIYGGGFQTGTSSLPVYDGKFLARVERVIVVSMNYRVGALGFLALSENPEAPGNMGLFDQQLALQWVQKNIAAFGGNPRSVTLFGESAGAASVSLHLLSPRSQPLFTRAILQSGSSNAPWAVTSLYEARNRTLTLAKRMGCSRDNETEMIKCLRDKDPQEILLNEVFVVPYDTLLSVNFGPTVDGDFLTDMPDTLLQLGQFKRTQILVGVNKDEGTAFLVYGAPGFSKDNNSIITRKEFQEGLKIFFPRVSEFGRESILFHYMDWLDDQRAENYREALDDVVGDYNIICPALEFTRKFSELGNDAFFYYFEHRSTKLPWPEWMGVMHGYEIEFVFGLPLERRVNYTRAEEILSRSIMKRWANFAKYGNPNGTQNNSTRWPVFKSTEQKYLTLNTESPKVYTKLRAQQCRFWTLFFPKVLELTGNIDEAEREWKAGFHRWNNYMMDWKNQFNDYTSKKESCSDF
T3 sequence (P56817 whole entry): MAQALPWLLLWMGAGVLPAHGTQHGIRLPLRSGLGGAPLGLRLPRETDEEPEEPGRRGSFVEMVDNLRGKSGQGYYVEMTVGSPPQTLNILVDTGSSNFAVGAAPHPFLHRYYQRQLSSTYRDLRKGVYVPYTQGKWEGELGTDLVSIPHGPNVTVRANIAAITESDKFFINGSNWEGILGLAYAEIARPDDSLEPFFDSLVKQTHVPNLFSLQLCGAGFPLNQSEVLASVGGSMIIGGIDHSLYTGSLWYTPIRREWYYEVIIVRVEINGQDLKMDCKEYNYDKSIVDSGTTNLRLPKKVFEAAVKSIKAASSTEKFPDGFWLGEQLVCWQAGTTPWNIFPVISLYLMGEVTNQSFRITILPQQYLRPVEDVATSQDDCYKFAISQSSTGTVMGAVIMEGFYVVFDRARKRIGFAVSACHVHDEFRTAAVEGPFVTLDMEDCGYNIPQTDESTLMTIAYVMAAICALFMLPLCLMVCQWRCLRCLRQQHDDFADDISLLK
Amine oxidase [flavin-containing] B, sequence (P27338 whole entry): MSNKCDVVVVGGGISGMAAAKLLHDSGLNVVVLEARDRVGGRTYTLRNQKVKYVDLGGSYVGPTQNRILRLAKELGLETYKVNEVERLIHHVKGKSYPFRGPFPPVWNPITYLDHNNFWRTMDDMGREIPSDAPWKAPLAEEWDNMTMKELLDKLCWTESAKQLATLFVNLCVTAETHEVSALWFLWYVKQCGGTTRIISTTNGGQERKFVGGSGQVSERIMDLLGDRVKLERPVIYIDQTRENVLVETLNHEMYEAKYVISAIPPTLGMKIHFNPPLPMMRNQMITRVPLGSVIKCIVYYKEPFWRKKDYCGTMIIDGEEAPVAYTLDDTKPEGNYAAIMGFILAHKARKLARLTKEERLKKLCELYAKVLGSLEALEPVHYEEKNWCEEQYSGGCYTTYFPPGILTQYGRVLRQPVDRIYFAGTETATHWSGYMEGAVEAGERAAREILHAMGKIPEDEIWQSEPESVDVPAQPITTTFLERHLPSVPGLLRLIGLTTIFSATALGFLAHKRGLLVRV

## COc1cc(-c2nc3ccccc3s2)ccc1OCC(=O)NCCCNc1c2c(nc3ccccc13)CCCC2
[1]
  inhibition: 33.7%

## O=C(CCN1CCN(Cc2ccccc2)CC1)Nc1ccc2nc3n(c(=O)c2c1)CCC3
Acetylcholinesterase [2]
  IC50: 3.29 µM
[3]
  IC50: 9.26 µM
Beta-secretase 1 [4]
  IC50: 0.129 µM
Cholinesterase [5]
  inhibition: 45.3%

## O=c1c2ccc(OCCN3CCCC3)cc2oc2cc(OCCN3CCCC3)cc(O)c12
Acetylcholinesterase [6]
  IC50: 0.12 µM

## O=C(OC1O[C@@H]2COC(=O)c3cc(O)c(O)c(O)c3-c3c(cc(O)c(O)c3O)C(=O)O[C@H]2[C@H](OC(=O)c2cc(O)c(O)c(O)c2)[C@H]1OC(=O)c1cc(O)c(O)c(O)c1)c1cc(O)c(O)c(O)c1 (stereo partly drawn) [TELLIMAGRANDIN II]
Beta-secretase 1 [7]
  IC50: 20.2 µM

## O=S(=O)(NC1C2CC3CC(C2)CC1C3)c1cccs1 (stereo not drawn)
[8]
  inhibition: 22%
[9]
  inhibition: 10%

## O=C(N/N=C/Nc1c2c(nc3ccccc13)CCCC2)C12CC3CC(CC(C3)C1)C2
Cholinesterase [10]
  IC50: 0.615 µM
Acetylcholinesterase [11]
  IC50: 6.77 µM

## COc1cc(/C=C/C(=O)N2CCC(c3ncccn3)CC2)ccc1O
[12]
  inhibition: 61.1%
[13]
  inhibition: 53.1%
Cholinesterase [14]
  IC50: 3.4 µM

## Cc1nc(C)c(C(=O)OCCCOC(=O)c2ccccn2)nc1C
[15]
  Ratio IC50: 1.32e+07

## Clc1ccc2c(NCCCNCC34CC5CC(CC(C5)C3)C4)ccnc2c1
Acetylcholinesterase [16]
  IC50: 0.5 µM

## O=C(OC[C@H]1O[C@@H](OC(=O)c2cc(O)c(O)c(O)c2)[C@H](OC(=O)c2cc(O)c(O)c(O)c2)[C@@H](OC(=O)c2cc(O)c(O)c(O)c2)[C@@H]1O)c1cc(O)c(O)c(O)c1
Cholinesterase [17]
  IC50: 18.3 µM
Acetylcholinesterase [18]
  IC50: 11.9 µM

## CCN(CC)Cc1ccc(/C=C/C(=O)c2ccc(OC)c(OC)c2)cc1O
[19]
  inhibition: 20.2%

## c1ccc(C[n+]2ccc(-c3nc4ccccc4s3)cc2)cc1
Cholinesterase [20]
  IC50: 0.182 µM
Acetylcholinesterase [21]
  IC50: 0.014 µM

## CC1(C)CCCC2(C)OC(=O)C=C12 (racemic) [DIHYDROACTINIDIOLIDE]
[22]
  IC50: 50 µM
Acetylcholinesterase [23]
  IC50: 0.03 µM
[24]
  IC50: 0.05 µM

## CCCN1CCN(c2ncc(CCN(C)CCCc3ccccc3)s2)CC1
Acetylcholinesterase [25]
  IC50: 14 µM
Cholinesterase [26]
  IC50: 14.6 µM

## C#CCOc1ccc(-c2cc(-c3ccc(OCCN4CCOCC4)cc3)nc(N)n2)cc1
[27]
  IC50: 9.91 µM
[28]
  IC50: 18.3 µM
